Where a name gives a salt, the structure may show the parent alone. Read-outs that look alike come from different tables or passages of the source. Blank lines part the entries; values can stand above or below the molecule they belong to.
Key:
KDR [1] = tested on: KDR
Method: (§1) Inhibition of Binding of VEGF 165 to KDR & Flt-1 Receptors as Measured by SPA Assay
(§2) Preparation of conditioned media containing the KDR-Fc soluble VEGF receptor.:
(§3) Human 293KDR2 cells, which secrete a soluble KDR-Fc fusion protein, were grown in Dulbecco's Modified Eagle Medium supplemented with 10% fetal calf serum, 2 mM glutamine, 10 units/ml penicillin G sulfate, 10 μg/ml streptomycin sulfate and 175 μg/ml geneticin (G418) sulfate. Cells were plated at a density of 10^6 cells/100 mm dish and incubated at 37° C. in a humidified atmosphere containing 95% air and 5% CO2. After 10 days, conditioned medium was collected and centrifuged at 15,000 rpm for 15 min to remove dead cells. A total of 0.1 volume of 1.15% gelatin and 0.02 volume of 1M HEPES buffer (pH 8) was added. Leupeptin and pepstatin A were added to 1 μg/ml each.
(§4) Preparation of ^125 I-labelled VEGF ligand:
(§5) Recombinant human ^125 T-labelled VEGF 165 was purchased from Amersham (3,800 cpm/fmol). ^125,-labelled VEGF was diluted in DMEM supplemented with gelatin (0.15%) and HEPES buffer (20 mM) to a final concentration of 40,000 cpm/25 μl.
Preparation of SPA beads:
(§6) SPA PVT antibody-binding beads were purchased from Amersham. Each bottle of SPA beads (500 mg) was reconstituted in 25 ml of DMEM supplemented with gelatin (0.15%) and HEPES buffer (20 mM). The bottle contents were well mixed (15 min with a stir bar at room temperature).
(§7) SPA assays were performed in flat-bottom polystyrene 96 well microtitre plates.
(a) Pipette 50 μl of SPA beads to well.
(§8) (b) Pipette 25 μl of conditioned medium to well.
(§9) (d) Pipette 25 μl of ^125 J-VEGF 165 to well.
(§10) The appropriate control wells were set up to measure non-specific binding, solvent effect, etc. The assays were run in duplicate or triplicate wells. Plates were sealed and incubate at room temperature without shaking for 5 to 20 hours. Plates were then counted in a Packard TopCount microtitre plate liquid scintillation counter.
(§11) A typical assay gave 3,000 to 6,000 cpm bound. Background binding (measured in the presence of 100-fold molar excess of unlabelled VEGF 165) was typically 200 to 300 cpm bound. Compounds were tested at 30, 10, 3, 1, 0.3 and 0.1 μg/ml in DMSO. […] Half maximal binding was determined by the following equation:
(§12) s=maximal cpm bound in the absence of compound.
(§13) The IC50 values were determined graphically by the following procedure:
(§14) A graph was drawn plotting compound concentration (x-axis) versus cpm bound (y-axis).
(§15) The half maximal binding was calculated using the equation above.
(§16) A horizontal line (LINE A) was drawn which intersects the y-axis at the half maximal binding value.
(§17) A vertical line (LINE B) was drawn through the point where LINE A intersects the inhibition curve.
(§18) The point where LINE B intersects the x-axis was extrapolated from the graph to give the IC50 value.

[2] = tested on: corneal neovascularization; assay: Corneal Neovascularization Model; format: in vivo, mice; conditions: 100 mg/kg, PO, days 1-10
Method: Corneal Neovascularization Model
The sustained release preparations of angiogenic agents (ELVAX pellet) were prepared by solvent casting. […] The solvent was then evaporated, leaving the angiogenic agent in the polymeric matrix
Mice were anesthetized using a 1-1.5 ml/kg solution containing a mixture of 70% ketamine hydrochloride (100 mg/ml) and 30% xylazine (20 mg/ml). Using sterile surgical technique, an ELVAX pellet containing either basic FGF (100 ng) or VEGF (400 ng) was implanted into a previously dissected intrastromal corneal pocket 0.5 mm from the corneoscleral limbus. Following implantation the implantation site margins were reapposed and the eyes were treated with topical antibiotic ointment (bacitracin/neomycin/polymixin). On various days (between postoperative days 4 and 18) the extent of neovascularization was measured.
Neovascularization was monitored by measurements of new vessel growth within the previously avascular cornea. This parameter was obtained by measuring with calipers under microscopic magnification the length of the base of the neovascular bed at the limbus. The area of neovascularization,which is typically triangular, was calculated by dividing the product of the length of the vessel and the base length by two. Data was statistically analyzed via Student-t-test of Log Relative Reduction of Neovascularization. A p-value (p≤0.05) indicates a statistically significant reduction in neovascularization of Treated Group, compared to Placebo Control.

[3] = tested on: Human Epidermoid Tumors (A431); format: in vivo, human tumor in BALB/c nu/nu female mice; conditions: 100 mg/kg, PO
[4] = tested on: Human Epidermoid Tumors (A431); format: in vivo, human tumor in BALB/c nu/nu female mice
Method: In Vivo Inhibition of Growth of Human Epidermoid Tumors (A431)
In vivo testing was performed using BALB/c nu/nu female mice (Charles River, Wilmington, Mass.). The human epidermoid carcinoma cells A-431 (American Type Culture Collection, Rockville, Md. # CRL-155) were grown in vitro and 5×10^6 cells were injected subcutaneously (SC) into mice. When tumors attained a mass of between 100 and 150 mg, the mice were randomized into treatment groups (Day Zero). Mice were treated either intraperitoneally (IP) or orally (PO) once a day on days 1 through 20 post staging with doses of either 100 or 50 mg/kg/dose in 0.2% Klucel. Tumor mass was determined every 7 days [(length×width^2)/2] for up to 42 days post staging. Relative tumor growth (mean tumor mass on day 7, 14, 21, 28, 35 and 42 divided by the mean tumor mass on day zero) was determined for each treatment group. The %T/C (Tumor/Control) was determined by dividing the relative tumor growth of the treated group by the relative tumor growth of the placebo group and multiplying by 100. Data was statistically analyzed via Student-t-test of Log Relative Tumor Growth. A p-value (p≤0.05) indicates a statistically significant reduction in Relative Tumor Growth of Treated Group, compared to Placebo Control. A compound is considered to be active if the %T/C is found to be <60% and a p-value of less than or equal to 0.05 is achieved.

[5] = tested on: VEGF 165-induced vascular permeability; assay: Inhibition of Vascular Permeability Assay (Miles Assay); format: in vivo, BALB/c female mice; conditions: 100 mg/kg, PO
Method: Inhibition of Vascular Permeability Assay (Miles Assay) This assay was performed using BALB/c female mice (Charles River, Wilmington, Mass.). Both sides of the animals were shaved between 24 and 48 hours before the start of the assay. There were 10 animals per experimental group. […] One half hour later the animals were sacrificed by CO2 inhalation. […] Data was statistically analyzed via Student-t-test. A p-value (p≤0.05) indicates a statistically significant difference between the area of vascular permeability of the vehicle control verses the experimental group. Data was statistically analyzed via Student-t-test of Log Relative Area of Permiability. A p-value (p≤0.05) indicates a statistically significant reduction in permeability of Treated Group, compared to Placebo Control.

KDR [6] = assay: Inhibition of Binding of VEGF 165 to KDR Receptor as Measured by SPA Assay; conditions: read-out: affinity constant for VEGF binding to the soluble KDR-Fc receptor
Target sequence in this assay (P35968 20-327 limits assumed): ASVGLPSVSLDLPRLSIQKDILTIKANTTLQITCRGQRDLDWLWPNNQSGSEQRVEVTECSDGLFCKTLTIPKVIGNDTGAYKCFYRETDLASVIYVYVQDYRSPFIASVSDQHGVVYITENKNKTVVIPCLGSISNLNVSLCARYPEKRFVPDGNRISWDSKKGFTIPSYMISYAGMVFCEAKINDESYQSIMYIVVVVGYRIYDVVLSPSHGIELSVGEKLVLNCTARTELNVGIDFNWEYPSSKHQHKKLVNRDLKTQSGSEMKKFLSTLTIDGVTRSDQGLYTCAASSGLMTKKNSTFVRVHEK
Method: as §1, §2, §3, §4, §5
Preparation of SPA beads:
as §6, §7
(a) Pipette 50 μl of SPA beads to well.
as §8, §9, §10, §11, §12, §13, §14, §15, §16, §17, §18

IC50 (KDR [1]): 2.33 µg/mL
Molecule: COc1ccc(/C=C/C(=O)Nc2cc3c(cc2S(=O)(=O)O)-c2cc(S(=O)(=O)O)c(NC(=O)/C=C/c4ccc(OC)c(OC)c4Cl)cc2S3(=O)=O)c(Cl)c1OC [Example 27, 3,7-Bis[3-(2-chloro-3,4-di-methoxyphenyl)-acryloylamino]-5,5-dioxo-5H-5^6-dibenzothiophene-2,8-disulfonic acid, disodium salt]
% Control ([5]; 4 hr prior to VEGF): 73%
Lesion Area (measured area of vascular permeability) ([5]; 4 hr prior to VEGF): 58.5 mm^2
% T/C (Day) ([4]; 50 mg/kg, PO, day 28): 51%
% T/C (Day) ([4]; 100 mg/kg, PO, day 28): 30%

IC50 (KDR [1]): 0.5 µg/mL
Molecule: COc1ccc(/C=C/C(=O)Nc2cc3c(cc2S(=O)(=O)O)-c2cc(S(=O)(=O)O)c(NC(=O)/C=C/c4ccc(OC)cc4)cc2S3(=O)=O)cc1 [Example 30, 3,7-Bis-[3-(4-methoxyphenyl)-acryloylamino]-5,5-dioxo-5H-5^6-dibenzothiophene-2,8-disulfonic acid, disodium salt]
% Control ([5]; 4 hr prior to VEGF): 56%
Lesion Area (measured area of vascular permeability) ([5]; 4 hr prior to VEGF): 52.9 mm^2
% T/C (Day) ([4]; 50 mg/kg, PO, day 28): 58%
% T/C (Day) ([4]; 100 mg/kg, PO, day 42): 56%

IC50 (KDR [1]): 2 µg/mL
Molecule: CCCc1c(C(=O)Nc2cc3c(cc2S(=O)(=O)O)-c2cc(S(=O)(=O)O)c(NC(=O)c4cnn(-c5ccc(Cl)cc5)c4CCC)cc2S3(=O)=O)cnn1-c1ccc(Cl)cc1 [Example 45, 3,7-Bis-{[1-(4-chlorophenyl)-5-propyl-1H-pyrazole-4-carbonyl]amino}5,5-dioxo-5H-5^6-dibenzothiophene-2,8-disulfonic acid, disodium salt]
% T/C (Day) ([4]; 50 mg/kg, IP, day 28): 50%

IC50 (KDR [1]): 0.15 µg/mL
Molecule: O=C(Nc1cc2c(cc1S(=O)(=O)O)-c1cc(S(=O)(=O)O)c(NC(=O)c3ccc4cc5ccccc5cc4c3)cc1S2(=O)=O)c1ccc2cc3ccccc3cc2c1 [Example 54, 3,7-Bis-(anthracen-2-ylcarbonylamino)-5,5-dioxo-5H-5^6-dibenzothiophene-2,8-disulfonic acid, disodium salt]
% T/C (Day) ([4]; 50 mg/kg, IP, day 28): 46%
% T/C (Day) ([4]; 50 mg/kg, PO, day 28): 38%

IC50 (KDR [1]): 1 µg/mL
Molecule: O=C(Nc1cc2c(cc1S(=O)(=O)O)-c1cc(S(=O)(=O)O)c(NC(=O)c3ccc4c(c3)C(=O)c3ccccc3C4=O)cc1S2(=O)=O)c1ccc2c(c1)C(=O)c1ccccc1C2=O [Example 55, 3,7-Bis-[9,10-dihydro-9,10-dioxoanthracen-2-yl)carbonyl-amino]-5,5-dioxo-5H-5^6-dibenzothiophene-2,8-disulfonic acid, disodium salt]
% Control ([5]; 1 hr prior to VEGF): 77%
Lesion Area (measured area of vascular permeability) ([5]; 1 hr prior to VEGF): 71.6 mm^2
% Control ([5]; 4 hr prior to VEGF): 74%
Lesion Area (measured area of vascular permeability) ([5]; 4 hr prior to VEGF): 70.5 mm^2
% T/C (Day) ([4]; 50 mg/kg, PO, day 28): 44%

Kd (KDR [6]): ~0.1 nM
Molecule: VEGF

Continued, molecule first:

Molecule: O=C(Nc1cc2sc3cc(NC(=O)c4ccc5c(c4)C(=O)c4ccccc4C5=O)c(C(=O)O)cc3c2cc1C(=O)O)c1ccc2c(c1)C(=O)c1ccccc1C2=O.[Na].[Na] [Example 4, 3,7-Bis{[(9,10-dihydro-9,10-dioxo-2-anthracenyl)carbonyl]-amino}dibenzothiophene-2,8-dicarboxylic acid, disodium]
IC50 (KDR [1]): 0.2 µg/mL
Inhibition of Corneal Neovascularization ([2]; Day 4): 55%
Inhibition of Corneal Neovascularization ([2]; Day 8): 38%
Inhibition of Corneal Neovascularization ([2]; Day 11): 40%
Inhibition of Corneal Neovascularization ([2]; Day 13): 23%

Molecule: O=C(Nc1cc2sc3cc(NC(=O)c4cc5c(s4)-c4cc(Cl)ccc4SC5)c(C(=O)O)cc3c2cc1C(=O)O)c1cc2c(s1)-c1cc(Cl)ccc1SC2 [Example 6, 3,7-Bis[(8-chloro-4H-thieno[3,2-c][1]benzothiopyran-2-carbonyl)-amino]dibenzothio-phene-2,8-dicarboxylic acid, disodium]
IC50 (KDR [1]): 0.5 µg/mL
% T/C (Day) ([3]; day 15): 52%

Molecule: COc1ccc(/C=C/C(=O)Nc2cc3sc4cc(NC(=O)/C=C/c5ccc(OC)cc5)c(C(=O)O)cc4c3cc2C(=O)O)cc1 [Example 12, 3,7-Bis{[3-(4-methoxyphenyl)acryloylamino]-dibenzothiophene-2,8-dicarboxylic Acid, disodium salt]
IC50 (KDR [1]): 4.9 µg/mL
Inhibition of Corneal Neovascularization ([2]; Day 4): 41%
Inhibition of Corneal Neovascularization ([2]; Day 8): 41%
Inhibition of Corneal Neovascularization ([2]; Day 11): 34%
Inhibition of Corneal Neovascularization ([2]; Day 13): 8%

Molecule: CCOP(=O)(O)c1cc2c(cc1NC(=O)/C=C/c1ccc(OC)cc1)S(=O)(=O)c1cc(NC(=O)/C=C/c3ccc(OC)cc3)c(P(=O)(O)OCC)cc1-2 [Example 20, [3,7-Bis-[4-methoxyphenyl]-acryloylamino]-8-(ethoxyhydroxy-phosphoryl)-5,5-dioxo-5H-5^6-dibenzothiophen-2-yl]-phosphonic acid monoethyl ester, disodium salt]
IC50 (KDR [1]): 3.9 µg/mL
Inhibition of Corneal Neovascularization ([2]; Day 4): 29%
Inhibition of Corneal Neovascularization ([2]; Day 8): 25%
Inhibition of Corneal Neovascularization ([2]; Day 11): 30%
Inhibition of Corneal Neovascularization ([2]; Day 13): 26%
% T/C (Day) ([3]; day 29): 39%
S/T (No. Survivors/No. Treated) ([4]; 100 mg/kg, PO, Day +28 post tumor staging): 5/5

Molecule: CCOP(=O)(O)c1cc2c(cc1NC(=O)c1cc3ccccc3s1)S(=O)(=O)c1cc(NC(=O)c3cc4ccccc4s3)c(P(=O)(O)OCC)cc1-2 [Example 23a, [3,7-Bis[(benzo[b]thiophene-2-carbonyl)amino-8-(ethoxyhydroxyphosphoryl)-5,5-dioxo-5H-5λ^6-dibenzothiophen-2-yl]phosphonic acid monoethyl ester, disodium salt]
IC50 (KDR [1]): 1.65 µg/mL
Inhibition of Corneal Neovascularization ([2]; Day 4): 70%
Inhibition of Corneal Neovascularization ([2]; Day 8): 55%
Inhibition of Corneal Neovascularization ([2]; Day 11): 46%
Inhibition of Corneal Neovascularization ([2]; Day 13): 50%

— patent publication US6022307A, “Substituted dibenzothiophenes having antiangiogenic activity” (American Cyanamid Company, priority 1999, dated 2000)
